ChEMBL document CHEMBL5230091, “Histone deacetylase inhibitor based prodrugs” (Eur J Med Chem, 2020)
Values after ≈ are worked out from the molar mass of the structure shown. Each block holds one compound with its values, some of them ahead of it.

What was measured:
HCT-116 [1] = assay: Antiproliferative activity against human HCT-116 cells assessed as cell growth inhibition measured after 72 hrs by SRB assay; format: functional, cell-based; conditions: HCT-116, 72 h
A549 = assay: Antiproliferative activity against human A549 cells assessed as cell growth inhibition measured after 72 hrs by SRB assay; format: functional, cell-based; conditions: A549, 72 h
[2] = Aqueous solubility of compound by HPLC method; format: physicochemical; conditions: water (aqueous)
MV4-11 = assay: Antitumor activity against human MV4-11 cells xenografted in athymic nude mouse assessed as tumor volume inhibition at 60 mg/kg per day, po; format: functional
HCT-116 [3] = assay: Antitumor activity against human HCT-116 cells xenografted in athymic nude mouse assessed as tumor volume inhibition at 60 mg/kg per day, po; format: functional
MDA-MB-436 = assay: Antitumor activity against human MDA-MB-436 cells xenografted in athymic nude mouse assessed as tumor volume inhibition at 60 mg/kg per day, po; format: functional
SK-OV-3 = assay: Antitumor activity against human SK-OV-3 cells xenografted in athymic nude mouse assessed as tumor volume inhibition at 60 mg/kg per day, po; format: functional
NCI-H1975 = assay: Antitumor activity against human NCI-H1975 cells xenografted in athymic nude mouse assessed as tumor volume inhibition at 60 mg/kg per day, po; format: functional
SF-188 = assay: Antiproliferative activity against human SF-188 cells assessed as cell growth inhibition; format: functional, cell-based
U-251 = assay: Antiproliferative activity against human U-251MG cells assessed as cell growth inhibition; format: functional, cell-based
[4] = Cytotoxicity against human Astrocyte cells assessed as cell growth inhibition; format: toxicity, cell-based

Compound: CCc1c2c(nc3ccc(O)cc13)-c1cc3c(c(=O)n1C2)COC(=O)[C@@]3(CC)OC(=O)CNC(=O)ONC(=O)CCCCCCC(=O)Nc1ccccc1
IC50 (HCT-116 [1]): 113 nM
IC50 (A549): 87.3 nM

solubility [2]: 100 mg/mL (≈ 131 mM)
Compound: CN(CCOC(=O)ONC(=O)/C=C/c1cccc(S(=O)(=O)Nc2ccccc2)c1)C(=O)OCc1ccc(O[C@@H]2O[C@H](C(=O)O)[C@@H](O)[C@H](O)[C@H]2O)c(N)c1

solubility [2]: 40 mg/mL (≈ 54.3 mM)
Compound: CN(CCOC(=O)ONC(=O)CCCCCCC(=O)Nc1ccccc1)C(=O)OCc1ccc(O[C@@H]2O[C@H](C(=O)O)[C@@H](O)[C@H](O)[C@H]2O)c([N+](=O)[O-])c1

Compound: CC(=O)SCCCCC[C@H](NC(=O)[C@H]1CCC(=O)N1)C(=O)Nc1ccccc1
inhibition in vivo at 60 mg/kg (MV4-11): 70%
inhibition in vivo at 60 mg/kg (HCT-116 [3]): 77%
inhibition in vivo at 60 mg/kg (MDA-MB-436): 35%
inhibition in vivo at 60 mg/kg (SK-OV-3): 59%
inhibition in vivo at 60 mg/kg (NCI-H1975): 65%

IC50 (U-251): 154 µM
Compound: CCCC(=O)OCOC(=O)CCCc1ccccc1
IC50 (SF-188): 76 µM
IC50 [4]: 291 µM

solubility [2]: 80 mg/mL (≈ 101 mM)
Compound: CN(CCOC(=O)ONC(=O)/C=C/c1cccc(S(=O)(=O)Nc2ccccc2)c1)C(=O)OCc1ccc(O[C@@H]2O[C@H](C(=O)O)[C@@H](O)[C@H](O)[C@H]2O)c([N+](=O)[O-])c1

IC50 (HCT-116 [1]): 55.1 nM
IC50 (A549): 45.4 nM
Compound: CCc1c2c(nc3ccc(O)cc13)-c1cc3c(c(=O)n1C2)COC(=O)[C@]3(O)CC [7-ETHYL-10-HYDROXYCAMPTOTHECIN]

solubility [2]: 55 mg/mL (≈ 77.8 mM)
Compound: CN(CCOC(=O)ONC(=O)CCCCCCC(=O)Nc1ccccc1)C(=O)OCc1ccc(O[C@@H]2O[C@H](C(=O)O)[C@@H](O)[C@H](O)[C@H]2O)c(N)c1
